Measured values: PubChem BioAssay AID274 (DTP/NCI, 2004)
Inconclusive results and toxic doses are left out.

Tested on: BDF1 mice, Lewis lung carcinoma iv, survival T/C
Assay: NCI In Vivo Anticancer Drug Screen. Data for tumor model Lewis Lung Carcinoma (intravenous) in B6D2F1 (BDF1) mice
Conditions: endpoint: median survival time, higher = longer survival
Procedure: The antitumor activity of compounds was measured in mice bearing transplantable tumors. Survival or tumor size were measured and the results are expressed as the measurement made in the treated group (T) divided by the measurement made in the vehicle treated control group (C). The tumor model used in this assay is Lewis Lung Carcinoma (intravenous) in B6D2F1 (BDF1) mice

[1] = dose: 12.5 mg/kg/injection, schedule: Q01DX009 (ip), vehicle: saline with Tween-80
[2] = dose: 25.0 mg/kg/injection, schedule: Q01DX009 (ip), vehicle: saline
[3] = dose: 100.0 mg/kg/injection, schedule: Q01DX009 (ip), vehicle: saline
[4] = dose: 12.5 mg/kg/injection, schedule: Q01DX009 (ip), vehicle: Klucel (hydroxypropylcellulose) (HPC)
[5] = dose: 25.0 mg/kg/injection, schedule: Q01DX009 (ip), vehicle: Klucel (hydroxypropylcellulose) (HPC)
[6] = dose: 50.0 mg/kg/injection, schedule: Q01DX009 (ip), vehicle: Klucel (hydroxypropylcellulose) (HPC)
[7] = dose: 50.0 mg/kg/injection, schedule: Q01DX009 (ip), vehicle: saline with Tween-80
[8] = dose: 200.0 mg/kg/injection, schedule: Q01DX009 (ip), vehicle: saline with Tween-80
[9] = dose: 1.0 mg/kg/injection, schedule: Q01DX009 (ip), vehicle: saline
[10] = dose: 50.0 mg/kg/injection, schedule: Q01DX009 (ip), vehicle: saline

In the case of `NC(N)=NC(N)=Nc1ccc(-c2ccc(N=C(N)N=C(N)N)cc2)cc1`, the T/C (dose: 0.78 mg/kg/injection, schedule: Q01DX009 (ip), vehicle: saline with Tween-80) is reported as 110 % of control, the T/C (dose: 1.56 mg/kg/injection, schedule: Q01DX009 (ip), vehicle: saline with Tween-80) is reported as 110 % of control and the T/C (dose: 3.13 mg/kg/injection, schedule: Q01DX009 (ip), vehicle: saline with Tween-80) is reported as 99 % of control. The T/C (dose: 6.25 mg/kg/injection, schedule: Q01DX009 (ip), vehicle: saline with Tween-80) was 90 % of control and the T/C [1] was 113 % of control.

For `N=c1ccn2c(n1)OC1C(O)C(CO)OC12` (stereo not given), the T/C [2] was 104 % of control, the T/C (dose: 37.5 mg/kg/injection, schedule: Q01DX009 (ip), vehicle: saline) was 108 % of control and the T/C (dose: 75.0 mg/kg/injection, schedule: Q01DX009 (ip), vehicle: saline) was 106 % of control. The T/C [3] was 112 % of control, the T/C (dose: 150.0 mg/kg/injection, schedule: Q01DX009 (ip), vehicle: saline) was 119 % of control and the T/C (dose: 300.0 mg/kg/injection, schedule: Q01DX009 (ip), vehicle: saline) was 104 % of control. The T/C (dose: 600.0 mg/kg/injection, schedule: Q01DX009 (ip), vehicle: saline) was 92 % of control.

With `CC(C)=CC(=O)OC1C2C(C)=CC(=O)C(O)C2(C)C2C3(O)OCC24C(CC(=O)OC14)C(C)C3O` (stereo not given) the T/C (dose: 0.25 mg/kg/injection, schedule: Q01DX009 (ip), vehicle: distilled water + Tween-80) was 92 % of control, the T/C (dose: 0.5 mg/kg/injection, schedule: Q01DX009 (ip), vehicle: distilled water + Tween-80) was 90 % of control and the T/C (dose: 1.0 mg/kg/injection, schedule: Q01DX009 (ip), vehicle: distilled water + Tween-80) was 106 % of control. For the same molecule, the T/C (dose: 2.0 mg/kg/injection, schedule: Q01DX009 (ip), vehicle: distilled water + Tween-80) was 103 % of control.

With `COc1cccc2c1C(=O)c1c(O)c3c(c(O)c1C2=O)C[C@@](O)(C(=O)CO)C[C@@H]3OC1CC(N)CC(C)O1` (stereo not given in full) the T/C (dose: 0.18 mg/kg/injection, schedule: Q01DX009 (ip), vehicle: water) was 108 % of control and the T/C (dose: 0.37 mg/kg/injection, schedule: Q01DX009 (ip), vehicle: water) was 112 % of control.

In the case of `CN(Cc1cnc2nc(N)nc(N)c2n1)c1c(Cl)cc(C(=O)NC(CCC(=O)O)C(=O)O)cc1Cl` (stereo not given), the T/C [4] is reported as 96 % of control, the T/C [5] is reported as 93 % of control and the T/C [6] is reported as 98 % of control.

With `CCOC(C)C(/C=N/NC(N)=S)=NNC(N)=S` (stereo not given) the T/C [1] was 157 % of control, the T/C (dose: 25.0 mg/kg/injection, schedule: Q01DX009 (ip), vehicle: saline with Tween-80) was 95 % of control and the T/C [7] was 104 % of control. The T/C [8] was 114 % of control.

In the case of `CCCCCCCCCCCC(c1ccccc1)[N+](C)(C)Cc1ccccc1` (stereo not given), the T/C [9] is reported as 98 % of control and the T/C (dose: 2.0 mg/kg/injection, schedule: Q01DX009 (ip), vehicle: saline) is reported as 124 % of control.

For `O=C(O)CC(NC(=O)CP(=O)(O)O)C(=O)O.[NH-]C1CCCCC1[NH-].[Pt+2]` (stereo not given), the T/C (dose: 0.4 mg/kg/injection, schedule: Q01DX009 (ip), vehicle: dextrose) was 90 % of control, the T/C (dose: 0.8 mg/kg/injection, schedule: Q01DX009 (ip), vehicle: dextrose) was 110 % of control and the T/C (dose: 1.6 mg/kg/injection, schedule: Q01DX009 (ip), vehicle: dextrose) was 99 % of control. For the same molecule, the T/C (dose: 3.0 mg/kg/injection, schedule: Q01DX009 (ip), vehicle: dextrose) was 108 % of control, the T/C (dose: 3.2 mg/kg/injection, schedule: Q01DX009 (ip), vehicle: dextrose) was 103 % of control and the T/C (dose: 6.25 mg/kg/injection, schedule: Q01DX009 (ip), vehicle: dextrose) was 110 % of control.

With `Nc1ccnc(=O)[nH]1` the T/C (dose: 32.0 mg/kg/injection, schedule: Q01DX009 (ip), vehicle: Klucel (hydroxypropylcellulose) (HPC)) was 111 % of control, the T/C (dose: 32.0 mg/kg/injection, schedule: Q01DX009 (ip), vehicle: saline with Tween-80) was 103 % of control and the T/C (dose: 64.0 mg/kg/injection, schedule: Q01DX009 (ip), vehicle: Klucel (hydroxypropylcellulose) (HPC)) was 98 % of control. The T/C (dose: 128.0 mg/kg/injection, schedule: Q01DX009 (ip), vehicle: Klucel (hydroxypropylcellulose) (HPC)) was 95 % of control, the T/C (dose: 256.0 mg/kg/injection, schedule: Q01DX009 (ip), vehicle: Klucel (hydroxypropylcellulose) (HPC)) was 102 % of control and the T/C (dose: 256.0 mg/kg/injection, schedule: Q01DX009 (ip), vehicle: saline with Tween-80) was 119 % of control. For the same molecule, the T/C (dose: 512.0 mg/kg/injection, schedule: Q01DX009 (ip), vehicle: Klucel (hydroxypropylcellulose) (HPC)) was 86 % of control and the T/C (dose: 512.0 mg/kg/injection, schedule: Q01DX009 (ip), vehicle: saline with Tween-80) was 107 % of control.

With `CCOC(=O)CNC(=O)CCCCSc1ncnc2nc[nH]c12` the T/C (dose: 20.0 mg/kg/injection, schedule: Q01DX009 (ip), vehicle: Klucel (hydroxypropylcellulose) (HPC)) was 102 % of control, the T/C (dose: 40.0 mg/kg/injection, schedule: Q01DX009 (ip), vehicle: Klucel (hydroxypropylcellulose) (HPC)) was 106 % of control and the T/C (dose: 80.0 mg/kg/injection, schedule: Q01DX009 (ip), vehicle: Klucel (hydroxypropylcellulose) (HPC)) was 98 % of control. The T/C (dose: 160.0 mg/kg/injection, schedule: Q01DX009 (ip), vehicle: Klucel (hydroxypropylcellulose) (HPC)) was 98 % of control and the T/C (dose: 320.0 mg/kg/injection, schedule: Q01DX009 (ip), vehicle: Klucel (hydroxypropylcellulose) (HPC)) was 105 % of control.

In the case of `O=S(=O)(O)O.[NH-]C1CCCCC1[NH-].[Pt+2]` (stereo not given), the T/C (dose: 0.63 mg/kg/injection, schedule: Q01DX009 (ip), vehicle: dextrose) is reported as 101 % of control and the T/C (dose: 1.25 mg/kg/injection, schedule: Q01DX009 (ip), vehicle: dextrose) is reported as 110 % of control.

With `CC(=O)OCC1OC(n2cc(CBr)nn2)C(OC(C)=O)C(OC(C)=O)C1OC(C)=O` (stereo not given) the T/C (dose: 3.12 mg/kg/injection, schedule: Q01DX009 (ip), vehicle: Klucel (hydroxypropylcellulose) (HPC)) was 87 % of control, the T/C (dose: 6.25 mg/kg/injection, schedule: Q01DX009 (ip), vehicle: Klucel (hydroxypropylcellulose) (HPC)) was 88 % of control and the T/C [4] was 102 % of control. For the same molecule, the T/C [5] was 106 % of control and the T/C [6] was 96 % of control.

For `CC(=O)O[C@@H]1C(=O)C=C(C)[C@@H]2[C@@H](OC(=O)C=C(C)C)[C@H]3OC(=O)C[C@H]4[C@@H](C)[C@@H](O)[C@]5(O)OC[C@]34[C@H]5[C@@]12C`, the T/C (dose: 0.12 mg/kg/injection, schedule: Q01DX009 (ip), vehicle: saline) was 107 % of control, the T/C (dose: 0.25 mg/kg/injection, schedule: Q01DX009 (ip), vehicle: saline) was 106 % of control and the T/C (dose: 0.5 mg/kg/injection, schedule: Q01DX009 (ip), vehicle: saline) was 102 % of control. The T/C [9] was 107 % of control.

In the case of `O=C(Nc1cccc(Cl)c1)ON1C(=O)C2C(C1=O)C1(Cl)C(Cl)C(Cl)C2(Cl)C1(Cl)Cl` (stereo not given), the T/C [7] is reported as 98 % of control and the T/C [8] is reported as 87 % of control.

For `O=C(NCCCN1CC1)C(=O)NCCCN1CC1`, the T/C (dose: 0.75 mg/kg/injection, schedule: Q01DX009 (ip), vehicle: saline) was 110 % of control, the T/C (dose: 1.5 mg/kg/injection, schedule: Q01DX009 (ip), vehicle: saline) was 114 % of control and the T/C (dose: 3.0 mg/kg/injection, schedule: Q01DX009 (ip), vehicle: saline) was 120 % of control.

With `O=P1(NCCCl)OCCCN1CCCl` (stereo not given) the T/C (dose: 12.5 mg/kg/injection, schedule: Q01DX009 (ip), vehicle: saline) was 114 % of control, the T/C [2] was 112 % of control and the T/C [10] was 163 % of control. The T/C [3] was 305 % of control, the T/C (dose: 108.0 mg/kg/injection, schedule: Q01DX001 (ip), vehicle: water) was 112 % of control and the T/C (dose: 190.0 mg/kg/injection, schedule: Q01DX001 (ip), vehicle: saline) was 283 % of control. The T/C (dose: 289.0 mg/kg/injection, schedule: Q01DX001 (ip), vehicle: saline) was 283 % of control, the T/C (dose: 431.0 mg/kg/injection, schedule: Q01DX001 (ip), vehicle: saline) was 212 % of control and the T/C (dose: 500.0 mg/kg/injection, schedule: Q01DX001 (ip), vehicle: water) was 91 % of control.

With `CCCCCCCCCCCCCCC/C([O-])=N/[N+](C)(C)CC(C)O` (stereo not given) the T/C (dose: 12.5 mg/kg/injection, schedule: Q01DX001 (ip), vehicle: saline) was 95 % of control, the T/C (dose: 25.0 mg/kg/injection, schedule: Q01DX001 (ip), vehicle: saline) was 96 % of control and the T/C (dose: 50.0 mg/kg/injection, schedule: Q01DX001 (ip), vehicle: saline) was 97 % of control. The T/C (dose: 100.0 mg/kg/injection, schedule: Q01DX001 (ip), vehicle: saline) was 104 % of control, the T/C (dose: 200.0 mg/kg/injection, schedule: Q01DX001 (ip), vehicle: saline) was 108 % of control and the T/C (dose: 400.0 mg/kg/injection, schedule: Q01DX001 (ip), vehicle: saline) was 102 % of control.

`Nc1nc2c(c(=O)[nH]1)NC(CCNc1ccc(C(=O)NC(CCC(=O)O)C(=O)O)cc1)CN2` (stereo not given) was tested, and the T/C [2] was 111 % of control, the T/C [10] was 103 % of control and the T/C [3] was 117 % of control.
